Source: ChEMBL document CHEMBL2331303, “N-(Phenoxyalkyl)amides as MT(1) and MT(2) ligands: antioxidant properties and inhibition of Ca(2+)/CaM-dependent kinase II” (Bioorg Med Chem, 2013)
The source made the active and inactive calls. No cut-off for these calls is given here.

Experiments:
[1] = Inhibition of active recombinant full-length CaMK2 (unknown origin) using Autocamtide substrate and [gamma32P]ATP after 30 mins by scintillation counting method; design: species or system Homo sapiens
HepG2 [2] = test: Antioxidant activity in human HepG2 cells assessed as reduction in H2O2-induced oxidation by DCFH-DA assay; format: functional, cell-based
[3] = test system: Radical scavenging activity; test: Antioxidant activity assessed as DPPH radical scavenging activity at 1 mM; format: functional
[4] = test system: Radical scavenging activity; test: Antioxidant activity assessed as DPPH radical scavenging activity at 5.5 mM; format: functional
HepG2 [5] = test: Cytoprotective activity in human HepG2 cells assessed as reduction in H2O2-induced cell death at 10 to 100 ug/mL incubated for 2 hrs by MTT assay; format: functional, cell-based
[6] = test system: Radical scavenging activity; test: Antioxidant activity assessed as DPPH radical scavenging activity at 0.1 mM; format: functional
[7] = test system: Radical scavenging activity; test: Antioxidant activity assessed as DPPH radical scavenging activity; format: functional; details: dose or concentration not given here
HepG2 [8] = test: Cytoprotective activity in human HepG2 cells assessed as reduction in H2O2-induced cell death at 100 ug/mL incubated for 2 hrs by MTT assay; format: functional; design: scale not given: the % may be the effect or the level left

SMILES | IC50 [1] [µM] | IC50 (HepG2 [2]) [µM] | inhibition [3] [%] | inhibition [4] [%] | inhibition [6] [%] | other results
COc1cccc(O[C@H](C)CNC(=O)C2CC2)c1 | 129 |  |  |  |  | 
COc1cccc(OC(C)CNC(C)=O)c1 (racemic) |  | > 1000 |  |  |  | 
CCCC(=O)NCC(C)Oc1cccc(OC)c1 (racemic) | 122 | 226 | 4.05 | 11.7 | 3.22 | Activity (HepG2 [5]): Active
COc1cccc(OC(C)CNC(=O)C2CC2)c1 (racemic) | 107 | > 1000 |  |  |  | 
O=C(O)c1cc(O)c(O)c(O)c1 |  |  |  |  | 97.1 | inhibition [7]: 6%
COc1cccc(O[C@@H](C)CNC(=O)C2CC2)c1 | 117 |  |  |  |  | 
CC(=O)NCCOc1ccccc1 |  | > 1000 |  |  |  | 
CCCC(=O)NC[C@@H](C)Oc1cccc(OC)c1 | 129 | 183 | 5.1 | 20.7 | 5.6 | Activity (HepG2 [8]): 100%; Activity (HepG2 [5]): Active
CC(=O)NC(C)COc1ccccc1 (racemic) |  | > 1000 |  |  |  | 
CC(=O)NCC(C)Oc1ccccc1 (racemic) |  | > 1000 |  |  |  | 
COc1ccc2[nH]cc(CCNC(C)=O)c2c1 [MELATONIN] | 128 | 271 | 7.8 | 31.8 | 2.1 | 
CCCC(=O)NC[C@H](C)Oc1cccc(OC)c1 | 77 | > 1000 | 1.3 | 15.1 | 2.8 | 
